Values of other authors, collected in patent US20170215417A1, “ANTIMICROBIAL COMPOSITIONS” (LIVIONEX, Inc., priority 2013, published 2017).
Where two headings read alike, the source gives them in different places.

How the values were obtained:
[1] = @ 79° F.
[2] = system: Trichomichosis axillaris polymicrobial infection; details: for average time for resolution of the disease: then antimicrobial cream or lotion (Kim, Korean J Med Mycol. 2005)

| Structure (SMILES) | water solubility [1] [% w/v] | irritation and contact dermatitis with standard treatment ([2]; standard treatment: shaving, then antimicrobial cream or lotion) | average time for resolution of the disease ([2]; standard treatment: shaving) [weeks] | irritation and contact dermatitis with standard treatment ([2]; human, in vivo) |
| --- | --- | --- | --- | --- |
| CS(C)(=O)=O [MSM, methylsulfonylmethane] | 34 | – | – | – |
| O=C(OOC(=O)c1ccccc1)c1ccccc1 [benzoyl peroxide] | – | often results in irritation and contact dermatitis | 3 | – |
| CC[C@H]1OC(=O)[C@H](C)[C@@H](O[C@H]2C[C@@](C)(OC)[C@@H](O)[C@H](C)O2)[C@H](C)[C@@H](O[C@@H]2O[C@H](C)C[C@H](N(C)C)[C@H]2O)[C@](C)(O)C[C@@H](C)C(=O)[C@H](C)[C@@H](O)[C@]1(C)O [erythromycin] | – | – | 3 | often results in irritation and contact dermatitis |
